Legend:
[1] = test system: Gli1 mRNA expression in ASZ cells; assay: Hh inhibition: down-regulation of endogenous Gli1 mRNA expression in ASZ cells; assay type: cell-based, murine
CYP3A4 = CYP3A4 (Homo sapiens, UniProt P08684); assay: CYP3A4 inhibition; assay type: in vitro ADME; settings: removal of the triazole moiety
P-glycoprotein (Pgp) = P-glycoprotein (Pgp) (Homo sapiens, UniProt P08183); assay: P-glycoprotein substrate assessment; assay type: in vitro ADME; settings: CRO service (Pharmaron or Cyprotex)
human Smo = settings: HEK293 cells that stably express human Smo; cited from earlier work

P-glycoprotein (Pgp), sequence (P08183 whole entry): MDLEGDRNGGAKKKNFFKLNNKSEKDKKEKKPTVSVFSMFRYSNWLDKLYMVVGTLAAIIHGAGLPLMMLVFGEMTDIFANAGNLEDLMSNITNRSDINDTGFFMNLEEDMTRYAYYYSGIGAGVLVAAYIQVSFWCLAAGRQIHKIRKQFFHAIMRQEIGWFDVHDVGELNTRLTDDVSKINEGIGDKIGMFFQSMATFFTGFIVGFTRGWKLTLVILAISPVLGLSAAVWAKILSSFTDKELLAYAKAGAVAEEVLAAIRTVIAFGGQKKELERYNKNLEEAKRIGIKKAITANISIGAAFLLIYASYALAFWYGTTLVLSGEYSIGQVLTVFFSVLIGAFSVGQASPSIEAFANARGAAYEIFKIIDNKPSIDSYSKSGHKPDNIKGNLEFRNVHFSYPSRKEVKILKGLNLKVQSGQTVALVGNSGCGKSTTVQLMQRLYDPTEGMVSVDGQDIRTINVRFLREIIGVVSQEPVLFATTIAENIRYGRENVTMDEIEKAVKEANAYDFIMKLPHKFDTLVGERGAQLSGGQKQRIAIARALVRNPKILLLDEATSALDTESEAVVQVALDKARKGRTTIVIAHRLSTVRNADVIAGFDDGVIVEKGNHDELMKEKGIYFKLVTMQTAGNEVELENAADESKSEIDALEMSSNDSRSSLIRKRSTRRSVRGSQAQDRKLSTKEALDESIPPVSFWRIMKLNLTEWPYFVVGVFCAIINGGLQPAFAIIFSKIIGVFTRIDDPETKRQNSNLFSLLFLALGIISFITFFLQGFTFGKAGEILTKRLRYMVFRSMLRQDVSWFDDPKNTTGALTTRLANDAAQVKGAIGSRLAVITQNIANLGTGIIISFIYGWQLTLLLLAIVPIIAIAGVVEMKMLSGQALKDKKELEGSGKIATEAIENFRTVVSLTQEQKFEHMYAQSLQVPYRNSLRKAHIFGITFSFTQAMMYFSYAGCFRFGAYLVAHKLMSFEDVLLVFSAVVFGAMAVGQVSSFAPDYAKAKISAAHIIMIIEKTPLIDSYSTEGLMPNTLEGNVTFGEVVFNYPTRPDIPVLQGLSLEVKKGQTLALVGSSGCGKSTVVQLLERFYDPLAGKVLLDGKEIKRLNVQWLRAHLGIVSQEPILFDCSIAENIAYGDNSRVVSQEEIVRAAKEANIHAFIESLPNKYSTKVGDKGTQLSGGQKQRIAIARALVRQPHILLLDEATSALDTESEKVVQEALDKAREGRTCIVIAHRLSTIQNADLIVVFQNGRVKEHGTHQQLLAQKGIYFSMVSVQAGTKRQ
CYP3A4, sequence (P08684 whole entry): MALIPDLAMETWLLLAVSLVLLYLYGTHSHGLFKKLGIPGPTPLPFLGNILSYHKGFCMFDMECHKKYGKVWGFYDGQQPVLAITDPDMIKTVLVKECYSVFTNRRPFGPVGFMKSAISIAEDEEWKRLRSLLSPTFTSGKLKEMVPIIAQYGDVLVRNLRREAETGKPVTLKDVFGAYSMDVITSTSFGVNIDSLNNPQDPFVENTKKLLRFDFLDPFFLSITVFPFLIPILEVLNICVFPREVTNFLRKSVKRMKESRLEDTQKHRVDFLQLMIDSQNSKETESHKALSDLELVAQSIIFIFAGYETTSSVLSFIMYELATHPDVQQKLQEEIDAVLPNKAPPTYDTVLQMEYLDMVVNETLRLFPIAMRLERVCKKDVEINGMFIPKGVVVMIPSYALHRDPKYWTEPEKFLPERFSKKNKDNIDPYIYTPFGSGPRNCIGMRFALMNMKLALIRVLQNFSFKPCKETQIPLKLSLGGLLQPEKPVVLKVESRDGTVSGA

## CC[C@@H](C)n1ncn(-c2ccc(N3CCN(c4ccc(OC[C@@H]5CO[C@@](C)(c6ccc(F)cc6F)C5)cc4)CC3)cc2)c1=O [analogue 1, 2-((R)-sec-butyl)-4-(4-(4-(4-(((3R,5R)-5-(2,4-difluorophenyl)-5-methyltetrahydrofuran-3-yl)methoxy)phenyl)-piperazin-1-yl)phenyl)-2,4-dihydro-3H-1,2,4-triazol-3-one]
[1]; ratio of IC50 values
  fold more potent than PSZ: approximately 2.5 fold
CYP3A4
  ability to inhibit Cyp3A4, in words: completely abolished
P-glycoprotein (Pgp)
  P-gp Substrate: not a substrate

## CCC(C)n1ncn(-c2ccc(N3CCN(c4ccc(OCC5COC(Cn6cncn6)(c6ccc(Cl)cc6Cl)O5)cc4)CC3)cc2)c1=O (stereo not drawn) [ITZ, itraconazole]
Human Smo
  displacement of a tritiated Smo antagonist: significantly displaced

## CC[C@@H]([C@H](C)O)n1ncn(-c2ccc(N3CCN(c4ccc(OC[C@@H]5CO[C@@](Cn6cncn6)(c6ccc(F)cc6F)C5)cc4)CC3)cc2)c1=O [PSZ, Posaconazole, reference compound]
P-glycoprotein (Pgp)
  P-gp Substrate: identified as a substrate

## CC1(c2ccc(Cl)cc2Cl)OCC(COc2ccc(N3CCN(c4ccc(-n5cnn(CCC(=O)O)c5=O)cc4)CC3)cc2)O1 (stereo not drawn) [analogue 21, 3-(4-(4-(4-(4-((2-(2,4-dichlorophenyl)-2-methyl-1,3-dioxolan-4-yl)methoxy)phenyl)piperazin-1-yl)phenyl)-5-oxo-4,5-dihydro-1H-1,2,4-triazol-1-yl)propanoic acid]
[1]
  fold more active than 19: approximately 2 fold
